Experimental data from patent publication US7452865B2, “Antagonistic analogs of GH RH (2003)” (The Administrare's of the Tulane Educational Fund, priority 2004, dated 2008).
Marks after values point to notes of the source that are not given here.

Assays:
[1] = test system: PC-3 human prostate cancer xenografts; assay: PC-3 xenografts in nude mice, Experiment 4: tumor growth; format: in vivo; conditions: for Tumor volume (mm^3) Final / Tumor volume doubling time / Tumor weight / Tumor volume Final (% inhibition) / Tumor weight (% inhibition): 5 μg/day s.c., 28 days; for Tumor volume Final (% inhibition) / Tumor weight (% inhibition): vs control; for Tumor volume (mm^3) Initial: at start of treatment
Experimental: (§1) Male nude mice were implanted s.c. with 3 mm^3 pieces of PC-3 human hormone-independent prostate cancer tissue on both flanks. When tumors reached a volume of approximately 65 mm^3, the mice were divided into 7 experimental groups with 8 to 9 animals in each group and received single daily injections for 28 days as follows: 1. Control (vehicle solution); 2. JV-1-38 (10 μg/day s.c.); 3. Peptide 35 (10 μg/day s.c.); 4. Peptide 36 (10 μg/day s.c.); 5. Peptide 37 (10 μd/day s.c.); 6. Peptide 39 (10 μg/day s.c.); 7. Peptide 41 (10 μg/day s.c.). Tumor volumes were measured twice a week. The experiment was ended on day 28 by sacrificing the mice under Isofurane anesthesia. Resulting tumors were cleaned, weighed, and snapfrozen until further analyses. Trunk blood was collected from the abdominal aorta and serum was separated for RIA measurement of IGF-I. Statistical analyses of the measurement results were done by ANOVA followed by Fisher test; data are presented as the means±S.E.
(§2) All experimental details of Experiment 4 are the same as for Experiment 3, with the following difference. When tumors reached a volume of approximately 55 mm^3, the mice were divided into 5 experimental groups with 8 to 9 animals in each group and received single daily injections for 28 days as follows: 1. Control (vehicle solution); 2. Peptide 80 (5 μg/day s.c.); 3. Peptide 86 (5 μg/day s.c.); 4. Peptide 95 (5 μg/day s.c.); 5. Peptide 96 (5 μg/day s.c.). Further details of Experiment 4 are the same as for Experiment 3.

[2] = test system: GH-RH receptor isoforms on membrane fractions of human PC-3 prostate tumors; format: binding; conditions: general statement
Outline: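 Competitive displacement of [^125I]JV-1-42 from crude membranes of human PC-3 prostate tumours grown as nude-mouse xenografts, with unlabelled peptides at 10^−12 to 10^−6 M. Bound radioactivity in the centrifuged pellet gamma-counted; Ki from Munson–Rodbard analysis. Relative affinity = Ki of reference peptide (JV-1-36 or JV-1-38) / Ki of test antagonist.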

IGF-I = assay: PC-3 xenografts, Experiment 4: serum IGF-I (RIA); format: in vivo, nude mice; conditions: 5 μg/day s.c., 28 days; for Serum IGF-I (% inhibition): vs control
Description: For the measurement of GH and IGF-I levels in the serum, as well as IGF-I and IGF-II concentrations in the cytosol fraction of tumors, blood samples and tumor samples were collected and processed as described (Braczkowski R, Schally A V, Plonowski A, Varga J L, Groot K, Krupa M, Armatis P, Cancer 95: 1735-1745, 2002), hereby incorporated by reference. Briefly, blood samples are centrifuged to separate the serum, tumors are homogenized and centrifuged to separate the cytosol fraction. Serum GH is then measured by the double-antibody RIA method. Before measurement by RIA, IGF-I and IGF-II are extracted from serum and cytosol fractions using an acid-ethanol cryoprecipitation method that eliminates most of the IGF binding proteins, which can interfere with the RIA. IGF-I concentration is measured by RIA using IGF-I as a standard and goat anti-IGF-I antibody (both from DSL Inc., Webster, Tex.). IGF-II concentration is measured by RIA using human recombinant IGF-II (Bachem) as a standard and anti-IGF-II monoclonal antibody (Amano International Enzyme, Troy, Va.).
as §1, §2

“[CH3(CH2)6CO-Tyr^1, D-Arg^2, Phe(pCl)^6, Ala^8, His^9, Tyr(Et)^10, His^11, Abu^15, His^20, Nle^27, D-Arg^28, Har^29]hGH-RH(1-29)NH2 [Peptide 86]” was tested, and the “Tumor volume (mm^3) Final” value [1] was 397 ± 71.8* mm^3, the “Tumor volume doubling time” value [1] was 12.1 ± 1.40 days and the “Tumor weight” value [1] was 643 ± 94.9 mg. For the same substance, the “Tumor volume Final (% inhibition)” value [1] was 68%, the “Tumor weight (% inhibition)” value [1] was 56% and the “Tumor volume (mm^3) Initial” value [1] was 56.1 ± 8.67 mm^3. The “binding affinities to the tumoral receptors for GH-RH (in words)” value [2] was “extremely high binding affinities”, the “Serum IGF-I” value (IGF-I) was 118 ± 8.94 ng/mL and the “Serum IGF-I (% inhibition)” value (IGF-I) was 28%.

“[CH3(CH2)6CO-Tyr^1, D-Arg^2, Phe(pCl)^6, Ala^8, His^9, Tyr(Et)^10, His^11, Orn^12, Abu^15, His^20, Orn^21, Nle^27, D-Arg^28, Har^29]hGH-RH(1-29)NH2 [Peptide 96]” was tested, and the “antitumor effect on PC-3 tumors (in words)” value ([1]; 5 μg/day) was “strongest antitumor effect”, the “Tumor volume (mm^3) Final” value [1] was 301 ± 65.2** mm^3 and the “Tumor volume doubling time” value [1] was 11.0 ± 0.87 days. The “Tumor weight” value [1] was 489 ± 114 mg, the “Tumor volume Final (% inhibition)” value [1] was 77% and the “Tumor weight (% inhibition)” value [1] was 66%. For the same substance, the “Tumor volume (mm^3) Initial” value [1] was 56.2 ± 13.3 mm^3, the “binding affinities to the tumoral receptors for GH-RH (in words)” value [2] was “extremely high binding affinities” and the “Serum IGF-I” value (IGF-I) was 114 ± 15.5 ng/mL. For the same substance, the “Serum IGF-I (% inhibition)” value (IGF-I) was 31%.
